Earlier results, collected in publication PMC3501146 (ACS Chemical Biology, 2012).

System: Lactococcus lactis subsp. cremoris HP
Settings: indicator strain L. lactis subsp. cremoris HP

MIC against L. lactis subsp. cremoris HP (nisin): 32 nM
Substance: nisin (ITSISLCTPGCKTGALMGCNMKTATCHCSIHVSK; not fully specified; Lantibiotic nisin-A; UniProt P13068 24-57, looked up)
